According to US9302991B2, “Arylamide derivatives as TTX-S blockers” (RaQualia Pharma Inc., priority 2010, dated 2016):

Target: T1, human Nav1.7 channels (Homo sapiens, UniProt Q15858)
T1 construct: expressed in transfected cells; host or cells: CHO
Experiment: FRET assay, human Nav1.7 (EFS on FDSS)
Type: cell-based
Conditions: CHO cells expressing human Nav1.7, read-out: IC50 against Nav1.7
Outline: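 CHO cells stably expressing the channel, loaded with CC2-DMPE (10 µM) then DiSBAC2(3) (15 µM) plus VABSC-1, in HEPES-buffered saline pH 7.4 at room temperature. Electrical field stimulation on FDSS; FRET ratio at 440 nm fitted for IC50.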

T1 sequence (Q15858 whole entry): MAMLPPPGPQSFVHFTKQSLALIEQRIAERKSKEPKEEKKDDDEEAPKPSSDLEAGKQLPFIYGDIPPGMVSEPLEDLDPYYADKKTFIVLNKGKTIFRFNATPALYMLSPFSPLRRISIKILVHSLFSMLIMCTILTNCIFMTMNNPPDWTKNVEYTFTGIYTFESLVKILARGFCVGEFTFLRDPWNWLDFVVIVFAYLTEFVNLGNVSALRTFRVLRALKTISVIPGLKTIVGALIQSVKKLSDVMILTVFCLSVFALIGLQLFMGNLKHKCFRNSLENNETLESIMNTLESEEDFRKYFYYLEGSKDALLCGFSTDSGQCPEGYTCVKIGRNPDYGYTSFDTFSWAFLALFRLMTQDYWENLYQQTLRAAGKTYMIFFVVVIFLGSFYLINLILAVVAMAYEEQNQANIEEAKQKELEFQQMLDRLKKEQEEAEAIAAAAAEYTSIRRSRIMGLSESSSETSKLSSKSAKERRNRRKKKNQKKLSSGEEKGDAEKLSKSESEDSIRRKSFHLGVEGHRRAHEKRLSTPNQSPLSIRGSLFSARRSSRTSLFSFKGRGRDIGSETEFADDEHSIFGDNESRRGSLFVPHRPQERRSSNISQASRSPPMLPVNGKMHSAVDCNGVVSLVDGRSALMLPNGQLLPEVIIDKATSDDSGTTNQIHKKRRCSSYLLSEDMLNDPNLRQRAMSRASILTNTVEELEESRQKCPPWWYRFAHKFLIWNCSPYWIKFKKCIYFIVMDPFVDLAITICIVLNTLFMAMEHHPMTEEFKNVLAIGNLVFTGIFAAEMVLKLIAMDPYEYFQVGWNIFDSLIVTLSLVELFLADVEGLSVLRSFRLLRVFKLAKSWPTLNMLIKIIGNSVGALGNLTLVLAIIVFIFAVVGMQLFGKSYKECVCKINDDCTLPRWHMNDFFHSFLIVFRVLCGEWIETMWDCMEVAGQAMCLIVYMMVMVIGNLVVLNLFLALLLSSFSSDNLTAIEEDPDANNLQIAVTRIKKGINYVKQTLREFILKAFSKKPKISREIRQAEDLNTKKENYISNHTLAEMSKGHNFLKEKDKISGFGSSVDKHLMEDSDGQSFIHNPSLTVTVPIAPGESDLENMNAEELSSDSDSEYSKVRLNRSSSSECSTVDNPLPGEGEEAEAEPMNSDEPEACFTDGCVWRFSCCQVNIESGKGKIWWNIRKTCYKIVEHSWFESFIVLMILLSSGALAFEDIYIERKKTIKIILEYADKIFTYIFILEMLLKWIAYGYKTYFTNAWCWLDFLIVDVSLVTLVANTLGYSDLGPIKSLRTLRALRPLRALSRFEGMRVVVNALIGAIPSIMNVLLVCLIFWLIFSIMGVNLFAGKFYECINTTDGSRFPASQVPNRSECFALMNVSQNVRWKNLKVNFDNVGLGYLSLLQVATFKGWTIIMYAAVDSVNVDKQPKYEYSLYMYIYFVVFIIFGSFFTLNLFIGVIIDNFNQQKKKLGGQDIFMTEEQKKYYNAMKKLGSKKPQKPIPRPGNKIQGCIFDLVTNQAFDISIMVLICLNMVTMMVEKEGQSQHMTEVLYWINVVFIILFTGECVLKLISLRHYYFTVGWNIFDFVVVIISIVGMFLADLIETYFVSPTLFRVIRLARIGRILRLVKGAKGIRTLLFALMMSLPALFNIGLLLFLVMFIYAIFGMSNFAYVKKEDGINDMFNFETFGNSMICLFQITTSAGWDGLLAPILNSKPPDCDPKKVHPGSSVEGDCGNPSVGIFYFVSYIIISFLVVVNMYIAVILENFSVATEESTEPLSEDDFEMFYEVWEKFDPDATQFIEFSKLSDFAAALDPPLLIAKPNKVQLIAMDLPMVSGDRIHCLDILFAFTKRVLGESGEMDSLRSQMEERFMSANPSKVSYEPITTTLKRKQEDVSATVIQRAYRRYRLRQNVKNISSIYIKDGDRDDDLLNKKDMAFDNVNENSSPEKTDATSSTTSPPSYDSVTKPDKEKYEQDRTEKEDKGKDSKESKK

IC50, < 1000 nM:
CC(C)C(=O)Nc1cc(C(=O)NC(C)c2cnc(OCC(F)(F)F)c(F)c2)ccn1 (single isomer, unassigned) [Example 220, N-(1-(5-fluoro-6-(2,2,2-trifluoroethoxy)pyridin-3-yl)ethyl)-2-isobutyramidoisonicotinamide]
O=C(NCc1cccc(C(F)(F)F)c1)c1ccnc(NC(=O)C2CC2)n1 [Example 404, 2-(cyclopropanecarboxamido)-N-(3-(trifluoromethyl)benzyl)pyrimidine-4-carboxamide]
CCC(=O)Nc1cc(C(=O)NC(C)c2ccc(OCC(F)(F)F)c(Cl)c2)ccn1 (single isomer, unassigned) [Example 673, N-(1-(3-chloro-4-(2,2,2-trifluoroethoxy)phenyl)ethyl)-2-propionamidoisonicotinamide]
Cc1cc(C(=O)NCc2cnc(OCC(F)F)c(Cl)c2)cc(NC(=O)C(C)C)n1 [Example 620, N-((5-chloro-6-(2,2-difluoroethoxy)pyridin-3-yl)methyl)-2-isobutyramido-6-methylisonicotinamide]
Cc1cc(C(=O)NC(C)c2cccc(OC(F)(F)F)c2)cc(NC(=O)C(C)(C)O)n1 (single isomer, unassigned) [Example 421, 2-(2-hydroxy-2-methylpropanamido)-6-methyl-N-(1-(3-(trifluoromethoxy)phenyl)ethyl)isonicotinamide]
Cc1cc(C(=O)NC(C)c2cnc(OCC(F)F)c(Cl)c2)cc(NC(=O)C2CC2)n1 (single isomer, unassigned) [Example 1063, N-(1-(5-chloro-6-(2,2-difluoroethoxy)pyridin-3-yl)ethyl)-2-(cyclopropanecarboxamido)-6-methylisonicotinamide]
Cc1cc(CNC(=O)c2ccnc(NC(=O)C(C)C)c2)cnc1OCC(F)(F)F [Example 370, 2-isobutyramido-N-((5-methyl-6-(2,2,2-trifluoroethoxy)pyridin-3-yl)methyl)isonicotinamide]
CCC(=O)Nc1cc(C(=O)NC(C)c2ccc(OCC(F)(F)C(F)(F)F)nc2)ccn1 (single isomer, unassigned) [Example 1169, N-(1-(6-(2,2,3,3,3-pentafluoropropoxy)pyridin-3-yl)ethyl)-2-propionamidoisonicotinamide]
CC(NC(=O)c1ccnc(NC(=O)C2CC2)c1)c1ccc(OCC(F)(F)F)nc1 (single isomer, unassigned) [Example 9, 2-(cyclopropanecarboxamido)-N-(1-(6-(2,2,2-trifluoroethoxy)pyridin-3-yl)ethyl)isonicotinamide]
COc1nc(OCC(F)F)ccc1C(C)NC(=O)c1ccnc(NC(C)=O)c1 (single isomer, unassigned) [Example 1160, 2-acetamido-N-(1-(6-(2,2-difluoroethoxy)-2-methoxypyridin-3-yl)ethyl)isonicotinamide]
COc1nc(OCC(F)(F)F)ccc1CN(C)C(=O)c1cc(C)nc(NC(C)=O)c1 [Example 290, 2-acetamido-N-((2-methoxy-6-(2,2,2-trifluoroethoxy)pyridin-3-yl)methyl)-N,6-dimethylisonicotinamide]
CC(NC(=O)c1ccnc(NC(=O)C2CC2)c1)c1ccc(OCC(F)(F)F)c(Cl)c1 (single isomer, unassigned) [Example 675, N-(1-(3-chloro-4-(2,2,2-trifluoroethoxy)phenyl)ethyl)-2-(cyclopropanecarboxamido)isonicotinamide]
CC(=O)Nc1cc(C(=O)NCc2ccc(OCC(F)(F)F)nc2)cc(C)n1 [Example 237, 2-acetamido-6-methyl-N-((6-(2,2,2-trifluoroethoxy)pyridin-3-yl)methyl)isonicotinamide]
CC(=O)Nc1cc(C(=O)NCc2cnc(OCC(F)(F)F)cc2C)cc(C)n1 [Example 243, 2-acetamido-6-methyl-N-((4-methyl-6-(2,2,2-trifluoroethoxy)pyridin-3-yl)methyl)isonicotinamide]
COc1cc(C(C)NC(=O)c2ccnc(NC(=O)C3CC3)c2)cnc1OCC(F)(F)F (single isomer, unassigned) [Example 143, 2-(cyclopropanecarboxamido)-N-(1-(5-methoxy-6-(2,2,2-trifluoroethoxy)pyridin-3-yl)ethyl)isonicotinamide]
CC(=O)Nc1cc(C(=O)NC(C)c2cccc(OCC(F)(F)F)c2)cc(C)n1 (single isomer, unassigned) [Example 1009, 2-acetamido-6-methyl-N-(1-(3-(2,2,2-trifluoroethoxy)phenyl)ethyl)isonicotinamide]
Cc1cc(C(=O)NC(C)c2cnc(OCC(F)(F)F)c(F)c2)cc(NC(=O)C(C)C)n1 (single isomer, unassigned) [Example 486, N-(1-(5-fluoro-6-(2,2,2-trifluoroethoxy)pyridin-3-yl)ethyl)-2-isobutyramido-6-methylisonicotinamide]
Cc1cc(CNC(=O)c2ccnc(NC(=O)C3CC3)n2)ccc1OCC(F)F [Example 992, 2-(cyclopropanecarboxamido)-N-(4-(2,2-difluoroethoxy)-3-methylbenzyl)pyrimidine-4-carboxamide]
COc1c(CNC(=O)c2ccnc(NC(=O)C(C)C)c2)cccc1C(F)(F)F [Example 820, 2-isobutyramido-N-(2-methoxy-3-(trifluoromethyl)benzyl)isonicotinamide]
CC(=O)Nc1cc(C(=O)NC(C)c2cc(C(F)(F)F)ccc2F)ccn1 (single isomer, unassigned) [Example 1096, 2-acetamido-N-(1-(2-fluoro-5-(trifluoromethyl)phenyl)ethyl)isonicotinamide]
CC(=O)Nc1cc(C(=O)NCc2ccc(OCC(F)F)c(C)c2)cc(C)n1 [Example 993, 2-acetamido-N-(4-(2,2-difluoroethoxy)-3-methylbenzyl)-6-methylisonicotinamide]
COc1cc(C(C)NC(=O)c2cc(C)nc(NC(=O)C(C)C)c2)cnc1OCC(F)(F)F (single isomer, unassigned) [Example 487, 2-isobutyramido-N-(1-(5-methoxy-6-(2,2,2-trifluoroethoxy)pyridin-3-yl)ethyl)-6-methylisonicotinamide]
Cc1cc(C(=O)NCc2cnc(OCC(F)F)c(C)c2)cc(NC(=O)C2CC2)n1 [Example 851, 2-(cyclopropanecarboxamido)-N-((6-(2,2-difluoroethoxy)-5-methylpyridin-3-yl)methyl)-6-methylisonicotinamide]
CC(NC(=O)c1ccnc(NC(=O)C2CC2)c1)c1ccc(OCC(F)(F)F)cc1Cl (single isomer, unassigned) [Example 798, N-(1-(2-chloro-4-(2,2,2-trifluoroethoxy)phenyl)ethyl)-2-(cyclopropanecarboxamido)isonicotinamide]
CCc1cc(CNC(=O)c2cc(C)nc(NC(C)=O)c2)cnc1OCC(F)F [Example 932, 2-acetamido-N-((6-(2,2-difluoroethoxy)-5-ethylpyridin-3-yl)methyl)-6-methylisonicotinamide]
CC(=O)Nc1cc(C(=O)NC(C)c2ccc(OCC(F)(F)F)cc2Cl)ccn1 (single isomer, unassigned) [Example 796, 2-acetamido-N-(1-(2-chloro-4-(2,2,2-trifluoroethoxy)phenyl)ethyl)isonicotinamide]
Cc1cc(C(=O)NC(C)c2ccc(OCC(F)(F)F)c(Cl)c2)nc(NC(=O)C2CC2)n1 (single isomer, unassigned) [Example 679, N-(1-(3-chloro-4-(2,2,2-trifluoroethoxy)phenyl)ethyl)-2-(cyclopropanecarboxamido)-6-methylpyrimidine-4-carboxamide]
CCC(=O)Nc1cc(C(=O)NCc2cc(F)c(OCC(F)(F)F)nc2OC)cc(C)n1 [Example 328, N-((5-fluoro-2-methoxy-6-(2,2,2-trifluoroethoxy)pyridin-3-yl)methyl)-2-methyl-6-propionamidoisonicotinamide]
CC(=O)Nc1cc(C(=O)NCc2cnc(OCC(F)(F)F)c(-c3ccco3)c2)ccn1 [Example 770, 2-acetamido-N-((5-(furan-2-yl)-6-(2,2,2-trifluoroethoxy)pyridin-3-yl)methyl)isonicotinamide]
CC(=O)Nc1cc(C(=O)NCc2ccc(OCC(F)(F)F)nc2N2CCCCC2)cc(C)n1 [Example 307, 2-acetamido-6-methyl-N-((2-(piperidin-1-yl)-6-(2,2,2-trifluoroethoxy)pyridin-3-yl)methyl)isonicotinamide]
CCOc1nc(OCC(F)(F)F)ccc1CNC(=O)c1ccnc(NC(C)=O)c1 [Example 332, 2-acetamido-N-((2-ethoxy-6-(2,2,2-trifluoroethoxy)pyridin-3-yl)methyl)isonicotinamide]
